Assay results as given in ChEMBL document CHEMBL1201862, “PubChem BioAssay data set” (2004).
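Interpolation was linear, between the two tested concentrations surrounding the appropriate level; five concentrations were tested over 48 hours in 96-well plates. GI50: concentration for 50% inhibition of growth.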 Active and inactive are the calls of the source. No stated cut-off is given here; in the data, active = GI50 up to about 1.1 µM and inactive = higher.

Columns and labels:
Experiment in all cases: DTP human tumour cell line panel, 48 h
[1] = tested on: A549
[2] = tested on: HCT-15
[3] = tested on: PC-3
[4] = tested on: NCI-H23
[5] = tested on: HOP-62
[6] = tested on: OVCAR-4
[7] = tested on: CAKI-1
[8] = tested on: COLO 205
[9] = tested on: SK-MEL-28
[10] = tested on: SF-295
[11] = tested on: MCF7
[12] = tested on: MDA-MB-231
[13] = tested on: NCI/ADR-RES
[14] = tested on: SF-268
[15] = tested on: SNB-75
[16] = tested on: SK-OV-3
[17] = tested on: KM12
[18] = tested on: ACHN
[19] = tested on: SW-620
[20] = tested on: TK-10
[21] = tested on: RXF 393
[22] = tested on: M14
[23] = tested on: LOX IMVI
[24] = tested on: SR
[25] = tested on: DU-145
[26] = tested on: IGROV-1
[27] = tested on: T47D
[28] = tested on: U-251
[29] = tested on: EKVX
[30] = tested on: MDA-N
[31] = tested on: HCC 2998
[32] = tested on: Hs-578T
[33] = tested on: NCI-H226
[34] = tested on: MOLT-4
[35] = tested on: NCI-H460
[36] = tested on: HCT-116
[37] = tested on: A498
[38] = tested on: SF-539
[39] = tested on: RPMI-8226
[40] = tested on: UO-31
[41] = tested on: Malme-3M
[42] = tested on: HT-29
[43] = tested on: UACC-62
[44] = tested on: MDA-MB-435
[45] = tested on: OVCAR-3
[46] = tested on: BT-549
[47] = tested on: OVCAR-5
[48] = tested on: 786-0
[49] = tested on: SK-MEL-5
[50] = tested on: UACC-257
[51] = tested on: SNB-19
[52] = tested on: SN12C
[53] = tested on: SK-MEL-2
[54] = tested on: NCI-H522
[55] = tested on: HOP-92
[56] = tested on: OVCAR-8
[57] = tested on: K562
[58] = tested on: HL-60
[59] = tested on: CCRF-CEM

Measured: GI50

O=C(O)c1ccccc1-c1ccccc1C(=O)Nc1ccc2c(c1)Cc1cc(F)ccc1-2
17.6 µM: [2]
inactive: [1] 24.5 µM | [3] 26.4 µM | [4] 17.9 µM | [5] 24.9 µM | [6] 25.9 µM | [7] 30.4 µM | [8] 17.4 µM | [9] 37.8 µM | [10] 26.4 µM | [11] 27.5 µM | [12] 26.3 µM | [13] 36.5 µM | [14] 43.6 µM | [15] 26.6 µM | [16] 31.3 µM | [17] 24.5 µM | [18] 21.2 µM | [19] 33.7 µM | [20] 28.9 µM | [21] 32.2 µM | [22] 19.7 µM | [23] 19.7 µM | [24] 18 µM | [25] 33.6 µM | [26] 34 µM | [27] 22.1 µM | [28] 21.3 µM | [29] 27.1 µM | [30] 23.6 µM | [31] 16.3 µM | [32] 54.8 µM | [33] 30.5 µM | [34] 26.7 µM | [35] 26.6 µM | [36] 16 µM | [37] 19 µM | [38] 29.5 µM | [39] 31.5 µM | [40] 27.8 µM | [41] 33.7 µM | [42] 22.8 µM | [43] 17.7 µM | [44] 32.5 µM | [45] 17.7 µM | [46] 18.9 µM | [47] 30.8 µM | [48] 24.3 µM | [49] 19.5 µM | [50] 22.1 µM | [51] 36.4 µM | [52] 12.3 µM | [53] 18.8 µM | [54] 24.3 µM | [55] 37.9 µM | [56] 35.2 µM

Cc1ccc(Nc2n[nH]c(NS(=O)(=O)c3cc(C)c(Cl)cc3S)n2)cc1
inactive: [1] > 100 µM | [57] > 100 µM | [3] > 100 µM | [4] > 100 µM | [5] > 100 µM | [6] > 100 µM | [7] > 100 µM | [8] > 100 µM | [9] > 100 µM | [10] > 100 µM | [11] > 100 µM | [12] > 100 µM | [13] > 100 µM | [14] > 100 µM | [15] > 100 µM | [16] > 100 µM | [17] > 100 µM | [18] > 100 µM | [19] > 100 µM | [20] > 100 µM | [21] > 100 µM | [22] > 100 µM | [23] > 100 µM | [24] > 100 µM | [25] > 100 µM | [26] > 100 µM | [27] > 100 µM | [28] > 100 µM | [29] > 100 µM | [30] > 100 µM | [31] > 100 µM | [32] > 100 µM | [33] > 100 µM | [34] > 100 µM | [35] > 100 µM | [36] > 100 µM | [37] > 100 µM | [38] > 100 µM | [39] > 100 µM | [40] > 100 µM | [58] > 100 µM | [59] > 100 µM | [41] > 100 µM | [42] > 100 µM | [43] > 100 µM | [44] > 100 µM | [45] > 100 µM | [46] > 100 µM | [47] > 100 µM | [48] > 100 µM | [49] > 100 µM | [50] > 100 µM | [51] > 100 µM | [52] > 100 µM | [53] > 100 µM | [54] > 100 µM | [55] > 100 µM | [56] > 100 µM
> 100 µM: [2]
